Data on 18 molecules can be found in patent US20160145267A1, “HETEROARYL SUBSTITUTED PYRAZOLES” (BAYER PHARMA AKTIENGESELLSCHAFT, priority 2013, published 2016).

pIC50: −log10 of the molar value. Read-outs that look alike come from different tables or passages of the source.

The target in test [1] is T1, catalytic domain of human Bub1 (amino acids 704-1085) (Homo sapiens, UniProt O43683).
T1 construct: catalytic domain of human Bub1 (amino acids 704-1085); His6 (N); made in house; host or cells: Hi5 insect cells
T1 sequence (O43683 704-1085): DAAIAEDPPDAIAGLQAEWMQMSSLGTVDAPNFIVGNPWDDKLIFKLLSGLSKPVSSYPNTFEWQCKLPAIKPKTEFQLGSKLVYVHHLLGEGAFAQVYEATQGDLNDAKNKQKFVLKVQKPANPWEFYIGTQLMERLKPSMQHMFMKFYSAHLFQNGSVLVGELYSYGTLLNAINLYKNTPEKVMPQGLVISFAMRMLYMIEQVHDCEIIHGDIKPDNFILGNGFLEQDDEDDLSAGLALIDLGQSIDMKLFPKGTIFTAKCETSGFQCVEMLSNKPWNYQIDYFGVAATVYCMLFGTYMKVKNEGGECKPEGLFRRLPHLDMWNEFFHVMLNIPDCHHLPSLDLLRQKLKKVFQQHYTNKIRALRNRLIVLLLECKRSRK
As to the kind of experiment: Bub1 kinase assay (TR-FRET). It counts as biochemical. On the procedure: To this end, 100-fold concentrated compound solutions (in DMSO) were previously prepared by serial dilution (1:3.4) of 2 mM stocks in a clear low volume 384-well source microtiter plate (Greiner Bio-One, Frickenhausen, Germany), from which 50 nL of compounds were transferred into a black low volume test microtiter plate from the same supplier. […] The resulting mixture (5 μL final volume) was incubated at 22° C. during 60 min., and the reaction was stopped by the addition of 5 μL of an aqueous EDTA-solution (50 mM EDTA, in 100 mM HEPES pH 7.5 and 0.2% (w/v) bovine serum albumin) which also contained the TR-FRET detection reagents (0.2 μM streptavidin-XL665 [Cisbio Bioassays, Codolet, France] and 1 nM anti-phoshoSerine antibody [Merck Millipore, cat. #35-001] and 0.4 nM LANCE EU-W1024 labeled anti-mouse IgG antibody [Perkin-Elmer, product no. AD0077, alternatively a Terbium-cryptate-labeled anti-mouse IgG antibody from Cisbio Bioassays can be used]). The stopped reaction mixture was further incubated 1 h at 22° C. in order to allow the formation of complexes between peptides and detection reagents. Subsequently, the amount of product was evaluated by measurement of the resonance energy transfer from the Eu-chelate-antibody complex recognizing the Phosphoserine residue to the streptavidin-XL665 bound to the biotin moiety of the peptide.
(Time-resolved FRET reads energy transfer from a long-lived donor to a nearby acceptor.)

For test [2], the system named is HeLa cell line. As to the kind of experiment: Proliferation assay (HeLa cell line). It counts as cell-based. The settings on record: Homo sapiens, 96 h, read-out: Biological Assay 2: Proliferation assay (HeLa cell line) median IC50. On the procedure:
Cultivated tumor cells (cells were ordered from ATCC, except HeLa-MaTu and HeLa-MaTu-ADR, which were ordered from EPO-GmbH, Berlin) were plated at a density of 1000 to 5000 cells/well, depending on the growth rate of the respective cell line, in a 96-well multititer plate in 200 μL of their respective growth medium supplemented 10% fetal calf serum. After 24 hours, the cells of one plate (zero-point plate) were stained with crystal violet (see below), while the medium of the other plates was replaced by fresh culture medium (200 μL), to which the test substances were added in various concentrations (0 μM, as well as in the range of 0.001-10 μM; the final concentration of the solvent dimethyl sulfoxide was 0.5%). The cells were incubated for 4 days in the presence of test substances. Cell proliferation was determined by staining the cells with crystal violet: the cells were fixed by adding 20 μL/measuring point of an 11% glutaric aldehyde solution for 15 minutes at room temperature. After three washing cycles of the fixed cells with water, the plates were dried at room temperature. The cells were stained by adding 100 μL/measuring point of a 0.1% crystal violet solution (pH 3.0). After three washing cycles of the stained cells with water, the plates were dried at room temperature. The dye was dissolved by adding 100 μl/measuring point of a 10% acetic acid solution. Absorbtion was determined by photometry at a wavelength of 595 nm. The change of cell number, in percent, was calculated by normalization of the measured values to the absorbtion values of the zero-point plate (=0%) and the absorbtion of the untreated (0 μm) cells (=100%). The IC50 values were determined by means of a 4 parameter fit.

Setting [3] is: 4 days incubation, crystal violet staining.
[4] abbreviates: 10 μM ATP, 1 μM peptide substrate, TR-FRET, read-out: Biological Assay 1: Bub1 kinase assay median IC50.

Regarding `CCNC(=O)Nc1nc(-c2nn(Cc3c(F)cc(OCC)cc3F)c(C3CC3)c2C)nc(Nc2ccncc2)c1N1CCOCC1` [Example 2-1-18, 1-{2-[5-cyclopropyl-1-(4-ethoxy-2,6-difluorobenzyl)-4-methyl-1H-pyrazol-3-yl]-5-(morpholin-4-yl)-6-(pyridin-4-ylamino)pyrimidin-4-yl}-3-ethylurea], the pIC50 is 6.54 in test [1] and 5.00 in test [2] (setting [3]).
With `CCNC(=O)Nc1nc(-c2nn(Cc3c(F)cc(OCC)cc3F)c(C3CC3)c2C)nc(Nc2ccncn2)c1N1CCOCC1` [Example 2-1-19, 1-{2-[5-cyclopropyl-1-(4-ethoxy-2,6-difluorobenzyl)-4-methyl-1H-pyrazol-3-yl]-5-(morpholin-4-yl)-6-(pyrimidin-4-ylamino)pyrimidin-4-yl}-3-ethylurea], the pIC50 in test [1] (setting [4]) is 5.68; in test [2], 5.25.
With `CCOc1cc(F)c(Cn2nc(-c3nc(NC(=O)NC4CCCCC4)c(N4CCOCC4)c(Nc4ccncc4)n3)c(C)c2C2CC2)c(F)c1` [Example 2-1-20, 1-cyclohexyl-3-{2-[5-cyclopropyl-1-(4-ethoxy-2,6-difluorobenzyl)-4-methyl-1H-pyrazol-3-yl]-5-(morpholin-4-yl)-6-(pyridin-4-ylamino)pyrimidin-4-yl}urea], the results for the pIC50 in test [1] and in test [2] (setting [3]) were 6.04 and 5.48, respectively.
With `CCOc1cc(F)c(Cn2nc(-c3nc(NC(=O)NC4CCCCC4)c(N4CCOCC4)c(Nc4ccncn4)n3)c(C)c2C2CC2)c(F)c1` [Example 2-1-21, 1-cyclohexyl-3-{2-[5-cyclopropyl-1-(4-ethoxy-2,6-difluorobenzyl)-4-methyl-1H-pyrazol-3-yl]-5-(morpholin-4-yl)-6-(pyrimidin-4-ylamino)pyrimidin-4-yl}urea], the pIC50 in test [1] (setting [4]) is 5.85; in test [2] it was 5.13.
Consider `C=CC(=O)Nc1cc(Nc2ccncc2)nc(-c2nn(Cc3c(F)cc(OCC)cc3F)c(C3CC3)c2C)n1` [Example 2-1-22, N-{2-[5-cyclopropyl-1-(4-ethoxy-2,6-difluorobenzyl)-4-methyl-1H-pyrazol-3-yl]-6-(pyridin-4-ylamino)pyrimidin-4-yl}prop-2-enamide], for which the figures for the pIC50 in test [1] and in test [2] (setting [3]) were 7.23 and 5.01, respectively.
For the molecule `CCOc1cc(F)c(Cn2nc(-c3nc(N)cc(Nc4ccnnc4)n3)c(C)c2C2CC2)c(F)c1` [Example 2-1-23, 2-[5-cyclopropyl-1-(4-ethoxy-2,6-difluorobenzyl)-4-methyl-1H-pyrazol-3-yl]-N-(pyridazin-4-yl)pyrimidine-4,6-diamine], the pIC50 in test [1] (setting [4]) was 7.74; in test [2], 5.22.
On to `CCOc1cc(F)c(Cn2nc(-c3nc(N)nc(Nc4ccnnc4)n3)c(C)c2C2CC2)c(F)c1` [Example 2-1-24, 6-[5-cyclopropyl-1-(4-ethoxy-2,6-difluorobenzyl)-4-methyl-1H-pyrazol-3-yl]-N-(pyridazin-4-yl)-1,3,5-triazine-2,4-diamine], for which the values for the pIC50 in test [1] and in test [2] (setting [3]) were 6.89 and 5.22, respectively.
For `CCOc1cc(F)c(Cn2nc(-c3nc(N)c(OCCOC)c(Nc4ccncc4)n3)c(C)c2C2CC2)c(F)c1` [Example 2-1-25, 2-[5-cyclopropyl-1-(4-ethoxy-2,6-difluorobenzyl)-4-methyl-1H-pyrazol-3-yl]-5-(2-methoxyethoxy)-N-(pyridin-4-yl)pyrimidine-4,6-diamine], the pIC50 was 8.00 in test [1] (setting [4]) and 5.52 in test [2].
With `CCOc1cc(F)c(Cn2nc(-c3nc(N)c(OCCOC)c(Nc4ccncn4)n3)c(C)c2C2CC2)c(F)c1` [Example 2-1-26, 2-[5-cyclopropyl-1-(4-ethoxy-2,6-difluorobenzyl)-4-methyl-1H-pyrazol-3-yl]-5-(2-methoxyethoxy)-N-(pyrimidin-4-yl)pyrimidine-4,6-diamine], the pIC50 in test [1] was 8.04; in test [2] (setting [3]), 5.38.
Regarding `CCOc1cc(F)c(Cn2nc(-c3nc(N)c(NC(=O)COC)c(Nc4ccncc4)n3)c(C)c2C2CC2)c(F)c1` [Example 2-1-27, N-{4-amino-2-[5-cyclopropyl-1-(4-ethoxy-2,6-difluorobenzyl)-4-methyl-1H-pyrazol-3-yl]-6-(pyridin-4-ylamino)pyrimidin-5-yl}-2-methoxyacetamide], the values for the pIC50 in test [1] (setting [4]) and in test [2] were 7.80 and < 5.00, respectively.
As for `CCOc1cc(F)c(Cn2nc(-c3nc(N)c(NC(=O)COC)c(Nc4ccncn4)n3)c(C)c2C2CC2)c(F)c1` [Example 2-1-28, N-{4-amino-2-[5-cyclopropyl-1-(4-ethoxy-2,6-difluorobenzyl)-4-methyl-1H-pyrazol-3-yl]-6-(pyrimidin-4-ylamino)pyrimidin-5-yl}-2-methoxyacetamide], the pIC50 in test [1] is 7.89; in test [2] (setting [3]) it was 5.00.
On to `CCNC(=O)Nc1c(N)nc(-c2nn(Cc3c(F)cc(OCC)cc3F)c(C3CC3)c2C)nc1Nc1ccncc1` [Example 2-1-29, 1-{4-amino-2-[5-cyclopropyl-1-(4-ethoxy-2,6-difluorobenzyl)-4-methyl-1H-pyrazol-3-yl]-6-(pyridin-4-ylamino)pyrimidin-5-yl}-3-ethylurea], for which the pIC50 was 7.72 in test [1] (setting [4]) and 5.28 in test [2].
For `CCOc1cc(F)c(Cn2nc(-c3nc(N)c(NS(=O)(=O)CC)c(Nc4ccncc4)n3)c(C)c2C2CC2)c(F)c1` [Example 2-1-30, N-{4-amino-2-[5-cyclopropyl-1-(4-ethoxy-2,6-difluorobenzyl)-4-methyl-1H-pyrazol-3-yl]-6-(pyridin-4-ylamino)pyrimidin-5-yl}ethanesulfonamide], the pIC50 in test [1] (setting [4]) was 8.06; in test [2], < 5.00.
Regarding `CCOc1cc(F)c(Cn2nc(-c3nc(N)c(NS(=O)(=O)C(F)(F)F)c(Nc4ccncc4)n3)c(C)c2C2CC2)c(F)c1` [Example 2-1-31, N-{4-amino-2-[5-cyclopropyl-1-(4-ethoxy-2,6-difluorobenzyl)-4-methyl-1H-pyrazol-3-yl]-6-(pyridin-4-ylamino)pyrimidin-5-yl}-1,1,1-trifluoromethanesulfonamide], the pIC50 in test [1] (setting [4]) was 8.01; in test [2] it was 5.00.
On to `CCOc1cc(F)c(Cn2nc(-c3nc4c(c(Nc5ccncc5)n3)OCC(=O)N4)c(C)c2C2CC2)c(F)c1` [Example 2-1-32, 2-[5-cyclopropyl-1-(4-ethoxy-2,6-difluorobenzyl)-4-methyl-1H-pyrazol-3-yl]-4-(pyridin-4-ylamino)-6H-pyrimido[5,4-b][1,4]oxazin-7(8H)-one], for which the results for the pIC50 in test [1] (setting [4]) and in test [2] were 7.92 and < 5.00, respectively.
On to `CCOc1cc(F)c(Cn2nc(-c3nc4c(c(Nc5ccncn5)n3)OCC(=O)N4)c(C)c2C2CC2)c(F)c1` [Example 2-1-33, 2-[5-cyclopropyl-1-(4-ethoxy-2,6-difluorobenzyl)-4-methyl-1H-pyrazol-3-yl]-4-(pyrimidin-4-ylamino)-6H-pyrimido[5,4-b][1,4]oxazin-7(8H)-one], for which the pIC50 in test [1] (setting [4]) is 7.47; in test [2] it was 5.00.
In the same order, the values of `CCOc1cc(F)c(Cn2nc(-c3nc(Nc4ccncn4)c(OC)c(Nc4ccncn4)n3)c(C)c2C2CC2)c(F)c1` [Example 2-2-5, 2-[5-cyclopropyl-1-(4-ethoxy-2,6-difluorobenzyl)-4-methyl-1H-pyrazol-3-yl]-5-methoxy-N,N′-di(pyrimidin-4-yl)pyrimidine-4,6-diamine] are 6.74 and < 5.00.
With `CCOc1cc(F)c(Cn2nc(-c3nc(Nc4ccnnc4)cc(Nc4ccnnc4)n3)c(C)c2C2CC2)c(F)c1` [Example 2-2-10, 2-[5-cyclopropyl-1-(4-ethoxy-2,6-difluorobenzyl)-4-methyl-1H-pyrazol-3-yl]-N,N′-di(pyridazin-4-yl)pyrimidine-4,6-diamine], the pIC50 in test [1] was 6.00; in test [2] (setting [3]) it was 5.00.
